Laboratory results: patent US11464802B2, “3-substituted piperidine compounds for Cbl-b inhibition, and use thereof” (Nurix Therapeutics, Inc., priority 2019, dated 2022)
Where two headings read alike, the source gives them in different places.

Columns and labels:
Cbl-b = Cbl-b (Homo sapiens (Human), UniProt Q13191); test: Cbl-b displacement assay (Cbl-b inhibition assay), TR-FRET probe displacement, Biological Example 1; format: binding
Experimental: Candidate compounds were evaluated for their ability to bind and inhibit Cbl-b, an E3 ubiquitin-protein ligase, as evidenced by their ability to displace a fluorophore-labeled probe (Example 46) bound to Cbl-b.
The ability of candidate compounds to displace a known inhibitor and thereby inhibit Cbl-b activity was measured by monitoring the interaction of Cbl-b with a fluorophore-labeled probe in the presence of the candidate compound. A truncated variant of Cbl-b (UniProt number Q13191; SEQ ID NO:1) containing an Avitag at its N-terminus was co-expressed with BirA biotin ligase and purified using a standard protocol (see Dou et al., Nature Structural and Molecular Biology 8: 982-987, 2013; Avidity LLC).
Fluorescently-labeled inhibitor probe was synthesized and tagged with BODIPY FL (Example 46). Cbl-b displacement assays were performed in a 384-well plate at room temperature in a 10 μL reaction volume by pre-incubating 0.5 nM Cbl-b or 0.125 nM Cbl-b (final concentration, indicated as “High” and “Low”, respectively) in an assay buffer containing 20 mM HEPES pH 7.5, 150 mM NaCl, 0.01% Triton X-100, 0.01% BSA, and 0.5 mM TCEP in the presence of a candidate compound in 1% DMSO (final concentration) for 1 hour. After incubation in the presence of the candidate compound, the plate was incubated for an additional 1 hour in the presence of an approximate EC40 binding saturation consisting of 150 nM fluorescently-labeled inhibitor probe and 2 nM Streptavidin-Terbium (Cisbio) (final concentrations). Following the 1 hour incubation, the plates were read for TR-FRET signal at 520/620 nM using an Envision plate reader (Perkin Elmer).

[1] = test system: primary human total T-cells; test: Primary human total T-cell activation: IL-2 secretion, Biological Example 2; format: cell-based; conditions: 48 hours, fold change over baseline; for fold induction at 0.3 µM: inhibitor 0.3 μM; for fold induction at 1 µM: inhibitor 1 μM; for fold induction at 3 µM: inhibitor 3 μM
[2] = test system: primary human total T-cells; test: Primary human total T-cell activation: CD25 surface staining, Biological Example 2; format: cell-based; conditions: 48 hours, fold change over baseline; for fold induction at 0.3 µM: inhibitor 0.3 μM; for fold induction at 1 µM: inhibitor 1 μM; for fold induction at 3 µM: inhibitor 3 μM
[3] = 0.125 nM Cbl-b final concentration (Low), read-out: Cbl-b activity IC50 (Low)
[4] = Cbl-b concentration (High or Low) not given, read-out: IC50 values in the Cbl-b inhibition assay of Biological Example 1
[5] = anti-CD3/anti-CD28 co-stimulation
[6] = anti-CD3/anti-CD28 co-stimulation, read-out: IL-2 secretion CD3/CD28 1 μM
[7] = anti-CD3 alone, read-out: IL-2 secretion CD3 1 μM
[8] = anti-CD3/anti-CD28 co-stimulation, read-out: CD25 staining CD3/CD28 1 μM
[9] = anti-CD3 alone, read-out: CD25 staining CD3 1 μM
[10] = 0.5 nM Cbl-b final concentration (High), read-out: Cbl-b activity IC50 (High)

Cbl-b, sequence (Q13191 36-427): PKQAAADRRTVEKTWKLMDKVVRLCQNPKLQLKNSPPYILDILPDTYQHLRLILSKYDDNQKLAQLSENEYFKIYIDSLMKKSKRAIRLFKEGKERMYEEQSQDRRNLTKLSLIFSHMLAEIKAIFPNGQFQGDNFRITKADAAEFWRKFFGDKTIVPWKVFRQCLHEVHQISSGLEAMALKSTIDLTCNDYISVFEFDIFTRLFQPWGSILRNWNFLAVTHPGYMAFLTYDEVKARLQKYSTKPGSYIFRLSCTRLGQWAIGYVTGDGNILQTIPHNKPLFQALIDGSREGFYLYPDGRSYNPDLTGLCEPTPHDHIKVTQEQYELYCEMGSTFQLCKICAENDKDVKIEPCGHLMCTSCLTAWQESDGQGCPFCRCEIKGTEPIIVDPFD

Row | IC50 (Cbl-b; [3]) [nM] | IC50 (Cbl-b; [4]) [nM] | IC50 (Cbl-b; [10]) [nM] | SMILES | fold induction at 0.3 µM [1, 5] | fold induction at 1 µM [1, 6] | fold induction at 1 µM [1, 7] | fold induction at 3 µM ([1]; anti-CD3 alone) | fold induction at 0.3 µM [2, 5] | fold induction at 1 µM [2, 8] | fold induction at 1 µM [2, 9] | fold induction at 3 µM ([2]; anti-CD3 alone)
1 | 1 to 5 | 1 to 5 |  | C[C@H]1CCCN(Cc2cc3c(c(C4CC4)n2)CN(c2cccc(C4(Cc5nncn5C(F)F)COC4)c2)C3=O)C1 [Compound 37, 4-cyclopropyl-2-[3-(3-{[4-(difluoromethyl)-1,2,4-triazol-3-yl]methyl}oxetan-3-yl)phenyl]-6-{[(3S)-3-methylpiperidin-1-yl]methyl}-3H-pyrrolo[3,4-c]pyridin-1-one] | > 15 | > 15 | > 0.66 | > 0.66 | > 1.39 | > 1.39 | > 1.14 | > 1.14
2 | 5.1 to 100 |  |  | Cn1cnnc1CC1(c2cccc(N3Cc4c(cc(CN5CCCC(C)(F)C5)cc4C(F)(F)F)C3=O)c2)COC1 (stereo in doubt) [Compound 6, (S)-6-((3-fluoro-3-methylpiperidin-1-yl)methyl)-2-(3-(3-((4-methyl-4H-1,2,4-triazol-3-yl)methyl)oxetan-3-yl)phenyl)-4-(trifluoromethyl)isoindolin-1-one] | < 10 | > 15 | < 0.33 | 0.34 to 0.66 | > 1.39 | > 1.39 | > 1.14 | > 1.14
3 | 5.1 to 100 | 5.1 to 100 |  | C[C@H]1CCCN(Cc2cc3c(c(C(F)(F)F)c2)CN(c2cc(C4(Cc5nncn5C)COC4)cc(Cl)n2)C3=O)C1 [Compound 47, 2-(6-chloro-4-{3-[(4-methyl-1,2,4-triazol-3-yl)methyl]oxetan-3-yl}pyridin-2-yl)-6-{[(3S)-3-methylpiperidin-1-yl]methyl}-4-(trifluoromethyl)-3H-isoindol-1-one] | > 15 | > 15 | > 0.66 | > 0.66 | > 1.39 | > 1.39 | > 1.14 | > 1.14
4 |  | 5.1 to 100 | 5.1 to 100 | C[C@@H]1CN(Cc2cc3c(c(C(F)(F)F)c2)CN(c2cc(C4(Cc5nncn5C)COC4)cc(C4CC4)n2)C3=O)CCC1(F)F [Compound 30, (R)-2-(6-cyclopropyl-4-(3-((4-methyl-4H-1,2,4-triazol-3-yl)methyl)oxetan-3-yl)pyridin-2-yl)-6-((4,4-difluoro-3-methylpiperidin-1-yl)methyl)-4-(trifluoromethyl)isoindolin-1-one] | > 15 | > 15 | 0.34 to 0.66 | 0.34 to 0.66 | < 1.24 | < 1.24 | < 1.04 | < 1.04
5 |  | 5.1 to 100 | 5.1 to 100 | C[C@@H]1CN(Cc2cc3c(c(C(F)(F)F)c2)CN(c2cc(C4(Cc5nncn5C)COC4)cc(NC4COC4)n2)C3=O)CCC1(F)F [Compound 29, (R)-6-((4,4-difluoro-3-methylpiperidin-1-yl)methyl)-2-(4-(3-((4-methyl-4H-1,2,4-triazol-3-yl)methyl)oxetan-3-yl)-6-(oxetan-3-ylamino)pyridin-2-yl)-4-(trifluoromethyl)isoindolin-1-one] | 11 to 15 | 11 to 15 | 0.34 to 0.66 | 0.34 to 0.66 | < 1.24 | < 1.24 | < 1.04 | < 1.04
6 | < 1 | < 1 |  | C[C@H]1C[C@@H](CO)CN(Cc2cc3c(c(C(F)(F)F)c2)CN(c2cccc(C4(Cc5nncn5C)COC4)c2)C3=O)C1 (relative stereo) [Compound 23, cis-6-{[3-(hydroxymethyl)-5-methylpiperidin-1-yl]methyl}-2-(3-{3-[(4-methyl-1,2,4-triazol-3-yl)methyl]oxetan-3-yl}phenyl)-4-(trifluoromethyl)-3H-isoindol-1-one] | > 15 | > 15 | > 0.66 | > 0.66 | > 1.39 | > 1.39 | 1.05 to 1.14 | 1.05 to 1.14
7 |  | 5.1 to 100 | 5.1 to 100 | CCNc1cc(C2(Cc3nncn3C)COC2)cc(N2Cc3c(cc(CN4CCC(F)(F)[C@H](C)C4)cc3C(F)(F)F)C2=O)n1 [Compound 27, (R)-6-((4,4-difluoro-3-methylpiperidin-1-yl)methyl)-2-(6-(ethylamino)-4-(3-((4-methyl-4H-1,2,4-triazol-3-yl)methyl)oxetan-3-yl)pyridin-2-yl)-4-(trifluoromethyl)iso indolin-1-one] | > 15 | > 15 | > 0.66 | > 0.66 | < 1.24 | < 1.24 | < 1.04 | < 1.04
8 |  |  | 1 to 5 | C[C@H]1CN(Cc2cc(C(=O)Nc3cccc(C4(Cc5nncn5C)COC4)c3)nc(C3CC3)c2)CCC1(F)F [Compound 33, 6-cyclopropyl-4-{[(3S)-4,4-difluoro-3-methylpiperidin-1-yl]methyl}-N-(3-{3-[(4-methyl-1,2,4-triazol-3-yl)methyl]oxetan-3-yl}phenyl)pyridine-2-carboxamide] | 11 to 15 | 11 to 15 | < 0.33 | 0.34 to 0.66 | < 1.24 | < 1.24 | 1.05 to 1.14 | 1.05 to 1.14
9 | < 1 | < 1 |  | C[C@H]1CCCN(Cc2cc3c(c(C(F)(F)F)c2)CN(c2cccc(C4(Cc5nncn5C(F)F)COC4)c2)C3=O)C1 [Compound 36, 2-[3-(3-{[4-(difluoromethyl)-1,2,4-triazol-3-yl]methyl}oxetan-3-yl)phenyl]-6-{[(3S)-3-methylpiperidin-1-yl]methyl}-4-(trifluoromethyl)-3H-isoindol-1-one] | > 15 | > 15 | > 0.66 | > 0.66 | > 1.39 | > 1.39 | > 1.14 | > 1.14
10 | < 1 | < 1 |  | C[C@H]1C[C@H](CO)CN(Cc2cc3c(c(C(F)(F)F)c2)CN(c2cccc(C4(Cc5nncn5C)COC4)c2)C3=O)C1 (relative stereo) [Compound 22, trans-6-{[3-(hydroxymethyl)-5-methylpiperidin-1-yl]methyl}-2-(3-{3-[(4-methyl-1,2,4-triazol-3-yl)methyl]oxetan-3-yl}phenyl)-4-(trifluoromethyl)-3H-isoindol-1-one] | > 15 | > 15 | > 0.66 | > 0.66 | > 1.39 | > 1.39 | < 1.04 | < 1.04
11 |  |  | 1 to 5 | Cn1cnnc1CC1(c2cccc(N3Cc4c(cc(CN5CCC(F)(F)[C@]6(CCOC6)C5)cc4C(F)(F)F)C3=O)c2)COC1 [Compound 13, (R)-6-((10,10-difluoro-2-oxa-7-azaspiro[4.5]decan-7-yl)methyl)-2-(3-(3-((4-methyl-4H-1,2,4-triazol-3-yl)methyl)oxetan-3-yl)phenyl)-4-(trifluoromethyl)isoindolin-1-one] | 11 to 15 | 11 to 15 | 0.34 to 0.66 | 0.34 to 0.66 | < 1.24 | < 1.24 | 1.05 to 1.14 | < 1.04
12 | < 1 |  |  | C[C@H]1CCCN([C@@H](C)c2cc3c(c(C4CC4)n2)CN(c2cccc(C4(Cc5nncn5C)COC4)c2)C3=O)C1 [Compound 51, 4-cyclopropyl-2-(3-(3-((4-methyl-4H-1,2,4-triazol-3-yl)methyl)oxetan-3-yl)phenyl)-6-((S)-1-((S)-3-methylpiperidin-1-yl)ethyl)-2,3-dihydro-1H-pyrrolo[3,4-c]pyridin-1-one] | > 15 | > 15 | > 0.66 | > 0.66 | > 1.39 | > 1.39 | > 1.14 | > 1.14
